Data on nine molecules can be found in patent EP2664619B1, “Purine derivatives as tools for screening anti-Alzheimer compounds” (Manros Therapeutics, priority 2012, dated 2013).

pIC50: −log10 of the molar value.

The subject of one data set is Aβ42 production. Nature of the data set: Sandwich ELISA measurement of Aβ42 levels in supernatant of treated N2a-APP695 cells. To be noted: for EC50: Mus musculus, 18h incubation, ELISA assay, read-out: EC50 (µM) at inducing Aβ42 production. The data set is classed as cell-based, Mouse. The method, then: (§1) Mouse neuroblastoma cells (N2a cells) or N2a-APP695 cells (N2a cell line stably transfected with APP695, an amyloid precursor protein) were cultured in an essential medium composed of Dulbecco's minimal essential medium (DMEM) and of OptiMEM® (1:1, v/v) (Gibco®) containing 0.2 mg/mL Geniticin (Geneticin® Selective Antibiotic, Gibco®) and 5 % fetal bovine serum (FBS, Gibco®, EU approved origin) in a humidified, 5% CO2 incubator at 37°C. Routinely, cells were split without use of Trypsin every 4/5 days. They were first rinsed with PBS (Gibco) and detached from the plate bottom using 4 mL Versene (Gibco) at room temperature for 3-4 min. 8 mL of fresh medium were added to the cell suspension, and the mix was centrifuged for 3 min at 1,000 rpm. The cell pellet was resuspended in fresh medium before seeding (1/10 dilution) in new flasks.
The N2a-APP695 cells were seeded at 10.000 cells/well in a 96 well plate with modified media (0.5% FBS) and incubated overnight. Cells were treated with fresh media comprising different compounds according to the invention (equal quantity of DMSO sold by Sigma®). They were then incubated for 18h in a humidified, 5% CO2 incubator.
Purines according to the invention were added at various concentrations to N2a-APP695.
The plate was finally centrifuged to remove cell fragments before collecting supernatant samples for amyloids levels determination.
Then, Aβ38, Aβ40 and Aβ42 levels were measured in a sandwich ELISA (Enzyme-Linked ImmunoSorbent Assay) using a combination of monoclonal antibody 6E10 (mAb 6E10) (sold by Covance® under the reference SIG-39320) and biotinylated polyclonal Aβ38, Aβ40 or Aβ42 antibodies (provided by Dr. P.D. Mehta, IBR, Staten Island, USA).
A solution of 100 µl mAb 6E10 diluted in carbonate-bicarbonate buffer, pH 9.6, was coated in the wells of microtiter plates (Maxisorp™ sold by Nunc®) and incubated at 4°C overnight. The plates were then washed with PBST (PBS tablets sold by Gibco®) containing 0.05% Tween-20 (Sigma®), and blocked for 1 h with 1% BSA (Sigma®) in PBST (PBS tablets sold by Gibco®) containing 0.05 Tween-20 (Sigma®) to avoid nonspecific binding.
Following a washing step, samples were added and incubated for 2 hours at room temperature (RT) and then at 4°C overnight. Plates were then washed before incubation with biotinylated polyclonal antibody diluted in PBST (PBS tablets sold by Gibco®) containing 0.05 Tween-20 (Sigma®) + 0.5% BSA at room temperature for 75 minutes.
After a washing step, streptavidin-horseradish peroxidase conjugate (Streptavidin poly-HRP, Thermo Scientific Pierce®), diluted in PBS + 1% BSA, was added and incubation was carried out for 45 min at room temperature. After washing, 100 µl of o-phenylenediamine dihydrochloride (OPD tablets, Invitrogen®) diluted in citrate buffer pH 5.0 were added. The reaction was stopped after 15 min with the addition of 100 µl 1 N sulfuric acid.
A range of known concentrations of Aβ38, Aβ40 and Aβ42, ranging from 0.01 to 10 ng/mL for Aβ38 and Aβ42, and ranging from 0.001 to 10 ng/mL for Aβ40, were use as a reference scale to determine the concentrations of Aβ38, Aβ40 and Aβ42 obtained.
(§2) The optical density was finally measured at 490 nm in a microELISA reader (sold by BioTek Instrument, reference E1 800, Gen 5 software).
The EC50 of the molecules tested were thus calculated.
Background: ELISA stands for enzyme-linked immunosorbent assay.

In data set [1] the test system is Aβ40. Nature of the data set: Sandwich ELISA measurement of Aβ40 levels in supernatant of treated N2a-APP695 cells. The data set is classed as cell-based, Mouse. The method, then:
as §1, with “8 mL of fresh medium were added to the cell suspension, and the mix was centrifuged for 3 min at 1,000 rpm. The cell pellet was resuspended in fresh medium before seeding (1/10 dilution) in new flasks.” left out
(§3) The N2a-APP695 cells were seeded at 10.000 cells/well in a 96 well plate with modified media (0.5% FBS) and incubated overnight. Cells were treated with fresh media comprising different compounds according to the invention (equal quantity of DMSO sold by Sigma®). […]
(§4) Then, Aβ38, Aβ40 and Aβ42 levels were measured in a sandwich ELISA (Enzyme-Linked ImmunoSorbent Assay) using a combination of monoclonal antibody 6E10 (mAb 6E10) (sold by Covance® under the reference SIG-39320) and biotinylated polyclonal Aβ38, Aβ40 or Aβ42 antibodies (provided by Dr. P.D. Mehta, IBR, Staten Island, USA). […]
as §2

Data set [2] deals with Aβ38. Nature of the data set: Sandwich ELISA measurement of Aβ38 levels in supernatant of treated N2a-APP695 cells. Format: cell-based, Mouse. Here is the method: as §1, with “8 mL of fresh medium were added to the cell suspension, and the mix was centrifuged for 3 min at 1,000 rpm. The cell pellet was resuspended in fresh medium before seeding (1/10 dilution) in new flasks.” left out
as §3, §4, §2

The subject of data set [3] is Aβ38. As to the kind of experiment: Effect of γ-secretase inhibitors/modulator on Aβ38 level in Aftin-treated cells. Format: cell-based. To be noted: for pIC50: γ-secretase inhibitor, Aftin-treated cells. From the text: (§5) To investigate the importance of γ-secretases in the effects of Aftins according to the invention, two potent pharmacological inhibitors of γ-secretases, DAPT (N-[(3,5-Difluorophenyl)acetyl]-L-alanyl-2-phenyl]glycine-1,1-dimethylethyl ester) and BMS 299897 were used.

In a further data set the test system is Aβ42. As to the kind of experiment: Effect of γ-secretase inhibitors/modulator on Aftin-induced production of Aβ42. The data set is classed as cell-based. To be noted: for pIC50: γ-secretase inhibitor, Aftin-induced production.
Excerpt: as §5

In another data set the test system is N2a-APP695 cells. As to the kind of experiment: MTS cell viability assay in the same wells as the ELISA. To be noted: for Toxicity / Toxicity (concentration in brackets): MTS assay, N2a-APP695 cells; for Toxicity: class symbol; for Toxicity (concentration in brackets): concentration above which toxic.
For data set [4], the system named is Aβ40. As to the kind of experiment: Effect of γ-secretase inhibitors on Aβ40 level in Aftin-treated cells. Format: cell-based. To be noted: γ-secretase inhibitor.
Excerpt: as §5

In a further data set the test system is γ-secretases. To be noted: read-out: reported IC50 values on γ-secretases; cited from earlier work.
[5] abbreviates: N2a-APP695 cells, 18 hours, dose-dependent, Figure 3.
Where [6] appears, read: N2a-APP695 cells, 1 µM added simultaneously with increasing concentrations of Aftin-5.

Regarding `CCN(CC)c1ccc(C)c(Nc2nc(-c3ccc(-n4cnc(C)c4)cc3)cs2)c1` ['Torrey Pines' compound, reference compound], in the data set on Aβ42 production (setting [5]), the Aβ42 production result is given as “down-regulates”. Moreover, in the data set on Aβ40 [1] (setting [5]), the Aβ40 production result is “down-regulates”. In addition, in the data set with Aβ38 [2] (setting [5]), the Aβ38 level result is “up-regulation”. The Aβ38 regulation entry in the data set with Aβ38 [3] (setting [6]) is listed as “up-regulation”. In the data set with Aβ42 (setting [6]), the Aβ42 regulation result was “down-regulation”. In addition, in the data set with Aβ42 (N2a-APP695 cells, added 1 h prior to 100 µM Aftin-5, dose dependent, Figure 4), the “effect on Aftin-5 induced Aβ42 up-regulation and Aβ38 down-regulation” value is reported as “inhibition of Aftin-5 effect”.
What is called EC50 is the midpoint of the concentration-response curve. In the case of `CC[C@H](CO)Nc1nc(N(C)c2ccccc2)c2ncn(C(C)C)c2n1` [Aftin-5, (2R)-2-[[9-isopropyl-6-(N-methylanilino)purin-2-yl]amino]butan-1-ol], the EC50 with Aβ42 production (N2a-APP695 cells) was 10.6 µM. Moreover, in the data set with Aβ42 production (dose-response curves, Figure 1, 18 hours, up to), the “increase of the levels of Aβ42 production” value is listed as above 900%. Further, the “levels of Aβ40, maximum increase” value with Aβ40 [1] (dose-response curves, Figure 1, 18 hours) is given as at most 40%. Further, the “levels of Aβ38, decrease” value in the data set with Aβ38 [2] (dose-response, in parallel to the increase of Aβ42) was above 70%. Moreover, the Toxicity entry in the data set on N2a-APP695 cells is recorded as “- ("-" means that the tested compound is non toxic with a concentration higher than 100 µM)”. Moreover, the “cytotoxic effects on cells” value with N2a-APP695 cells (highest concentration tested (150 µM) or longest exposure (5 days)) was “did not show any cytotoxic effects”.
A word on the pIC50: it is −log10 of the IC50, conventionally taken in molar units. Regarding `C[C@H](c1ccc(F)cc1CCCC(=O)O)N(c1cc(F)ccc1F)S(=O)(=O)c1ccc(Cl)cc1` [BMS 299897], the pIC50 with Aβ38 [3] is 7.06; in the data set with Aβ40 [4] it was 7.25; in the data set on Aβ42 it was 7.54; with γ-secretases it was 6.52 to 8.10.
On to `CC(C)n1cnc2c(N(C)c3ccccc3)nc(NCCO)nc21` [Compound 40], for which, in the data set on Aβ42 production (N2a-APP695 cells), the EC50 is above 150 µM. The Toxicity result in the data set with N2a-APP695 cells is “- ("-" means that the tested compound is non toxic with a concentration higher than 100 µM)”.
Regarding `CC[C@H](CO)Nc1nc(N(CC)c2ccccc2)c2ncn(C(C)C)c2n1` [Compound 42], the EC50 in the data set on Aβ42 production (N2a-APP695 cells) was found to be 25 µM. Moreover, in the data set with N2a-APP695 cells, the Toxicity entry is reported as “+” and the “Toxicity (concentration in brackets)” value was above 100 µM.
Consider `CC[C@H](CO)Nc1nc(N(C)c2ccc(OC)cc2)c2ncn(C(C)C)c2n1` [Compound 44, (2R)-2-[[9-isopropyl-6-[(4-methoxyphenyl)-methyl-amino]purin-2-yl]amino]butan-1-ol], for which the half-maximal effective concentration (EC50) in the data set with Aβ42 production (N2a-APP695 cells) is 4.5 µM. Besides, in the data set with N2a-APP695 cells, the Toxicity entry was “+” and the “Toxicity (concentration in brackets)” value is above 21 µM.
Taken in the same sequence, the figures for `CC(C)n1cnc2c(OCc3ccccc3)nc(OCc3ccccc3)nc21` [Compound 46, 9-Iso-propyl-2,6-dibenzyloxypurine] were 3.5 µM, “+” and above 12 µM.
As to `CC[C@H](CO)Nc1nc(SCc2ccccc2)c2ncn(C(C)C)c2n1` [Compound 47, (2R)-2-[(6-benzylsulfanyl-9-isopropyl-purin-2-yl)amino]butan-1-ol], the EC50 in the data set on Aβ42 production (N2a-APP695 cells) is above 10 µM. Also, the Toxicity result with N2a-APP695 cells is “+”.
Regarding `C[C@H](NC(=O)Cc1cc(F)cc(F)c1)C(=O)N[C@H](C(=O)OC(C)(C)C)c1ccccc1` [DAPT], the pIC50 in the data set on Aβ38 [3] was 6.95; in the data set on Aβ40 [4] it was 7.21; in the data set with Aβ42, 7.37; in the data set with γ-secretases it was 7.25 to 7.60.
